Assay results reported in patent publication US20240158794A1, “NUCLEOSIDE CONTAINING siRNAS FOR TREATING VIRAL DISEASES” (priority 2020, published 2024).
Where two headings read alike, the source gives them in different places. Where no end group is shown, it is not given here.

Columns and labels:
[1] = human, in vivo; cited from earlier work
HBV [2] = settings: compared with lamivudine; cited from earlier work
HBV [3] = settings: 715 treatment-naive HBeAg-positive patients, compared with lamivudine; cited from earlier work
target mRNA [4] = settings: cited from earlier work
target mRNA [5] = test: HK polymers as carriers of siRNA (transfection, reduction of target mRNA); format: cell-based; settings: highly branched polymers with eight terminal branches
[6] = siRNA uptake with HK carriers; format: cell-based; settings: compared with other HK polymers or non-viral carriers tested

Cc1cn([C@H]2O[C@@H](CO)[C@H](O)[C@H]2F)c(=O)[nH]c1=O [Clevudine, 2′-fluoro-5-methyl-b-L-arabinofuranosyl-uracil]
adverse events that halted development [1]: myopathy and mitochondrial toxicity

C=C1[C@H](CO)[C@@H](O)C[C@@H]1n1cnc2c(=O)[nH]c(N)nc21 [Entecavir]
reducing viral DNA replication in vitro (HBV [2]): more effective than lamivudine
rate of histological, virological and biochemical improvement (HBV [3]): significantly higher rate

H^2K4b: four-branched histidine-lysine peptide polymer, branch KHKHHKHHKHHKHHKHHKHK- (also: one branch of four-branched polymer on lysine core)
carrier of siRNA (target mRNA [4]): poor carrier

H^3K4b: four-branched histidine-lysine peptide polymer, branch KHHHKHHHKHHHKHHHK- (also: one branch of four-branched polymer on lysine core)
carrier of siRNA (target mRNA [4]): effective carriers

B1: H^3K8b: highly branched histidine-lysine polymer with eight terminal branches and a histidine-rich domain (peptide)
chain 1: HHHKHHHKHHHKHHH
chain 2: HHHKHHHKHHHKHHHKHHHHNHHHH
chain 3: HHHKHHHKHHHKHHHKHHHHNHHHHKKK-NH2
modifications: also: chain 2 K16 side chain amide-linked to another sequence, chain 3 K16, K26, K27, K28 side chains amide-linked to other sequences (branched core)
carrier of siRNA (target mRNA [5]): highly effective
siRNA uptake [6]: more effectively than other HK polymers or non-viral carriers tested
